Data: US5147878A, “Aminoalkoxyphenyl derivatives, process of preparation and compositions containing the same” (Sanofi, priority 1986, dated 1992)
Values joined by “and” are separate entries in the source; they are usually repeats but may differ in a detail not shown here. Equal values may be shown once. Where a name gives a salt, the structure may show the parent alone.

Legend:
[1] = Acute toxicity, intravenous, Litchfield and Wilcoxon; conditions: mouse, in vivo, mice
Experimental: The acute toxicity of the compounds of the invention was determined intravenously in mice according to the method of Litchfield and Wilcoxon (J. Pharm. Exp. Therap. […], 96, 99).
The following results were obtained, expressed in the form of the LD50, compared with a benzoylindolizine derivative, in this case 2-ethyl-3-{4-[3-(di-n-butylamino)propyloxy]benzoyl}indolizine or butoprozine.

isolated rat aorta = assay: Calcium inhibitory properties: contractile response to potassium-induced depolarization on isolated rat aorta; set-up: species or system isolated organ, male Wistar rats; conditions: for activity at 1 µM: 10^-6 M; for activity at 0.001 µM: 10^-9 M; for % of the maximum contractional effect: 60 min
How it was run: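 Male Wistar rat aorta strips under 2 g tension in modified Krebs-bicarbonate at 37° C, gassed with CO2/O2; contraction induced by 100 mM KCl potassium-Krebs. Compound incubated 60 min before repeat K+ depolarization; response expressed as % of maximum contraction before compound.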

[2] = system: isoprenaline-induced acceleration in heart rate (anti-β effect); assay: Antiadrenergic properties: anti-β effect (reduction of isoprenaline-induced tachycardia); type: in vivo; set-up: key to anti-β effect: +: for a reduction < 50%; ++: for a reduction ≥ 50%; +++: for a reduction sub-total (almost complete reduction); conditions: dog; for inhibition in vivo at 1 mg/kg: 1 mg/kg i.v.
How it was run: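 Pentobarbital-anaesthetized, atropinized dogs given isoprenaline (1–2 μg/kg, dose set per dog for ~70 beats/min rise) alternating with epinephrine every 10 min. After two reference responses, compound given intravenously; % reduction in isoprenaline tachycardia versus reference recorded.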

[3] = system: epinephrine-induced increase in blood-pressure (anti-α effect); assay: Antiadrenergic properties: anti-α effect (reduction of epinephrine-induced hypertension); type: in vivo; set-up: key to anti-α effect: +: for a reduction < 50%; ++: for a reduction ≥ 50%; +++: for a reduction sub-total (almost complete reduction); conditions: dog; for inhibition in vivo at 1 mg/kg: 1 mg/kg i.v.
How it was run: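 Pentobarbital-anaesthetised, atropinised dogs given an epinephrine dose of 3–10 μg/kg, titrated per animal to raise blood pressure about 133×10^2 Pa. After two reference responses, test compound given intravenously. Result is % reduction of epinephrine-induced hypertension versus reference.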

[4] = Rattus norvegicus, 1 h, read-out: % of the maximum contractional effect
[5] = Rattus norvegicus, 1 h, 10^-7 M, read-out: % of the maximum contractional effect
[6] = Canis lupus familiaris, iv, 5 mg/kg i.v.
[7] = Rattus norvegicus, 1 h, 10^-8 M, read-out: % of the maximum contractional effect
[8] = Canis lupus familiaris, iv, 0.027 mg/kg i.v.

SMILES | LD50 [1] [mg/kg] | activity at 1 µM (isolated rat aorta; [4]) [%] | activity at 0.1 µM (isolated rat aorta; [5]) [%] | activity at 0.01 µM (isolated rat aorta; [7]) [%] | activity at 0.001 µM (isolated rat aorta; [4]) [%] | also measured
CCCCN(CCCC)CCCOc1ccc(C(=O)c2c(CC)cc3ccccn23)cc1 [Butoprozine, 2-ethyl-3-{4-[3-(di-n-butylamino)propyloxy]benzoyl}indolizine, reference compound] | 23 | – | – | – | – | –
CCCCN(CCCC)CCCOc1ccc(S(=O)(=O)c2c(C)cn3ccccc23)cc1.O=C(O)C(=O)O [Ex. 6, 2-Methyl-1-{4-[3-(di-n-butylamino)propyloxy]benzenesulphonyl}indolizine oxalate] | 31 | 13.9 | 69.1 | – | – | –
CCCN(CCC)CCCOc1ccc(S(=O)(=O)c2c(CC)cn3ccccc23)cc1.Cl [Ex. 7, 2-Ethyl-1-{4-[3-(di-n-propylamino)propyloxy]benzenesulphonyl}indolizine hydrochloride] | 26 | 8.3 | 60 | – | – | anti-β effect ([2]; 5 mg/kg i.v.): +++; anti-α effect ([3]; 5 mg/kg i.v.): +++; Activity ratio (isolated rat aorta; compound / Compound E): 6.0
CCCCN(CCCC)CCCOc1ccc(S(=O)(=O)c2c(CC)cn3ccccc23)cc1C.Cl [Ex. 9, 2-Ethyl-1-{4-[3-(di-n-butylamino)propyloxy]-3-methylbenzenesulphonyl}indolizine hydrochloride] | 55 | 17.4 | 57.2 | – | – | inhibition in vivo at 1 mg/kg ([2]; Canis lupus familiaris, iv): ≥ 50%; inhibition in vivo at 1 mg/kg ([3]; Canis lupus familiaris, iv): ≥ 50%
CCCCN(CCCC)CCCOc1ccc(S(=O)(=O)c2c(CCC)cn3ccccc23)cc1.O=C(O)C(=O)O [Ex. 11, 2-n-Propyl-1-{4-[3-(di-n-butylamino)propyloxy]benzenesulphonyl}indolizine oxalate] | 28 | 8.8 | 37.7 | – | – | inhibition in vivo at 1 mg/kg ([2]; Canis lupus familiaris, iv): ≥ 50%; inhibition in vivo at 1 mg/kg ([3]; Canis lupus familiaris, iv): ≥ 50%
CCCCc1cn2ccccc2c1S(=O)(=O)c1ccc(OCCCN(CCCC)CCCC)cc1.O=C(O)C(=O)O [Ex. 13, 2-n-Butyl-1-{4-[3-(di-n-butylamino)propyloxy]benzenesulphonyl}indolizine oxalate] | 31 | 39.8 | – | – | – | inhibition in vivo at 5 mg/kg [2, 6]: ≥ 50%; inhibition in vivo at 5 mg/kg [3, 6]: ≥ 50%; Activity ratio (isolated rat aorta; compound / Compound C): 2.0
CCCCN(CCCC)CCCOc1ccc(S(=O)(=O)c2c(-c3ccccc3)cn3ccccc23)cc1.Cl [Ex. 18, 2-Phenyl-1-{4-[3-(di-n-butylamino)propyloxy]benzenesulphonyl}indolizine hydrochloride] | 35 | 55.6 | – | – | – | –
CCCCN(CCCC)CCCOc1ccc(S(=O)(=O)c2c(-c3ccccc3)cn3ccccc23)cc1C.Cl [Ex. 19, 2-Phenyl-1-{4-[3-(di-n-butylamino)propyloxy]-3-methylbenzenesulphonyl}indolizine hydrochloride] | 60 | 77.2 | – | – | – | –
CCc1cn2ccccc2c1S(=O)(=O)c1ccc(OCCCN(C)CCc2ccc(OC)c(OC)c2)cc1 [Ex. 28, 2-Ethyl-1-[4-{3-[N-methyl-N-(3,4-dimethoxy-β-phenethyl)-amino]propyloxy}benzenesulphonyl]indolizine] | 32 | – | 14.2 | 60.2 | 85.4 | inhibition in vivo at 0.1 mg/kg ([2]; Canis lupus familiaris, iv, 0.1 mg/kg i.v.): ≥ 50%; anti-α effect ([3]; 0.1 mg/kg i.v.): +++
COc1ccc(CCN(C)CCCOc2ccc(S(=O)(=O)c3c(C(C)C)cn4ccccc34)cc2)cc1OC [Ex. 30, 2-Isopropyl-1-[4-{3-[N-methyl-N-(3,4-dimethoxy-β-phenethyl)amino]propyloxy}benzenesulphonyl]indolizine] | 140 | – | 9.4 | 40.1 | 81.7 | anti-β effect ([2]; 0.1 mg/kg i.v.): +++; anti-α effect ([3]; 0.1 mg/kg i.v.): +++
COc1ccc(CCN(C)CCCOc2ccc(S(=O)(=O)c3cc4ccccc4nc3C(C)C)cc2)cc1OC [Ex. 75, 2-isopropyl-3-[4-{3-[N-methyl-N-(3,4-dimethoxy-β-phenethyl)amino]propyloxy}benzenesulphonyl]quinoline oxalate] | – | – | – | 89.7 | – | inhibition in vivo at 1.3 mg/kg ([2]; Canis lupus familiaris, iv, 1.3 mg/kg i.v.): < 50%; anti-α effect ([3]; 1.3 mg/kg i.v.): +++; % of the maximum contractional effect (isolated rat aorta; 10^-7 M, 0.1 µM): 54% and 79.6%
COc1ccc(CCN(C)CCCOc2ccc(S(=O)(=O)c3c(C(C)C)cn4ncccc34)cc2)cc1OC [Ex. 76, 5-[4-{3-[N-methyl-N-(3,4-dimethoxy-β-phenethyl)amino]propyloxy}benzenesulphonyl]-6-isopropyl-pyrrolo[1,2-b]pyridazine oxalate] | – | – | 0 | 18.1 | 68.1 | inhibition in vivo at 0.13 mg/kg ([2]; Canis lupus familiaris, iv, 0.13 mg/kg i.v.): < 50%; anti-α effect ([3]; 0.13 mg/kg i.v.): +++
COc1ccc(CCN(C)CCCOc2ccc(S(=O)(=O)c3ccoc3C(C)C)cc2)cc1OC [Ex. 77, 2-isopropyl-3-[4-{3-[N-methyl-N-(3,4-dimethoxy-β-phenethyl)amino]propyloxy}benzenesulphonyl]furan oxalate] | – | – | 43.2 | 86 | 89.8 | inhibition in vivo at 3 mg/kg ([2]; Canis lupus familiaris, iv, 3 mg/kg i.v.): ≥ 50%; anti-α effect ([3]; 3 mg/kg i.v.): +++
COc1cc(CCNCCCOc2ccc(S(=O)(=O)c3c(C(C)C)cn4ccccc34)cc2)cc(OC)c1 [Ex. 133, 1-[4-{3-[N-(3,5-dimethoxy-β-phenethyl)amino]propyloxy}benzenesulphonyl]-2-isopropyl-indolizine acid oxalate] | – | – | 6.2 | 30.5 | 73.4 | inhibition in vivo at 0.027 mg/kg [2, 8]: < 50%; inhibition in vivo at 0.027 mg/kg [3, 8]: ≥ 50%; % of the maximum contractional effect (isolated rat aorta; 10^-8 M, 0.01 µM): 30.3%
COc1cc(CCN(C)CCCOc2ccc(S(=O)(=O)c3c(C(C)C)cn4ccccc34)cc2)cc(OC)c1 [Ex. 145, 2-isopropyl-1[4-{3-[N-methyl-N-(3,5-dimethoxy-β-phenethyl)amino]propyloxy}benzenesulphonyl]indolizine acid oxalate] | – | – | – | 21 | 57.7 | inhibition in vivo at 0.033 mg/kg ([2]; Canis lupus familiaris, iv, 0.033 mg/kg i.v.): ≥ 50%; anti-α effect ([3]; 0.033 mg/kg i.v.): +++; activity at 0.0001 µM (isolated rat aorta; Rattus norvegicus, 1 h, 10^-10 M, read-out: % of the maximum contractional effect): 81%
